For one assay, the system named is Cancer cell lines. Put plainly: (§1) Cytotoxicity against human Colon cancer cells after 3 days by FMCA method. The class given is functional, cell-based.
A further assay has as its system CLL. Kind of assay: (§2) Cytotoxicity against human CLL cells after 3 days by FMCA method. The class given is functional, cell-based.
In assay [1] the target is T1, 26S proteasome (Homo sapiens) (UniProt Q99460+P49721+P20618+P28074+P28062+P28065+P28072+O00487+P25786+P25787+P25788+P25789+P28066+P60900+O14818+Q8TAA3+P40306+A5LHX3+P49720+P28070+Q99436+Q16186+P35998+P62191+P43686+P62333+P17980+P62195+Q13200+O43242+O00232+O00231+Q15008+P51665+Q9UNM6+P55036+P48556+P60896). As to conditions: MelJuSo UbG76V-YFP, 0.1 uM.
Description: Inhibition of 20S proteasome in human MelJuSo UbG76V-YFP cells assessed as accumulation of K48-linked poly-ubiquitinated proteins at 0.1 uM after 6 hrs by immunoblot method
The target in assay [2] is T1, 26S proteasome (Homo sapiens). As to conditions: MelJuSo UbG76V-YFP, 0.1 uM. This is another data set of the same source.
Description: Inhibition of 20S proteasome in human MelJuSo UbG76V-YFP cells assessed as accumulation of UbG76V-YFP protein at 0.1 uM after 6 hrs by immunoblot method
For the next assay, the species on record is Homo sapiens. Put plainly: (§3) Cytotoxicity against human Pseudomyxoma peritonei cells after 3 days by FMCA method. In kind it is functional, cell-based.
Assay [3] relates to MelJuSo UbG76V-YFP. Put plainly: Inhibition of Ubiquitin-proteasome system in human MelJuSo UbG76V-YFP cells assessed as HSP70B' accumulation 5 to 10 uM after 18 hrs by immunoblot method. In kind it is cell-based. A general note: In western blotting, separated proteins are transferred to a membrane and probed.
The test system of assay [4] is MelJuSo UbG76V-YFP. Put plainly: Inhibition of Ubiquitin-proteasome system in human MelJuSo UbG76V-YFP cells assessed as accumulation of K48-linked poly-ubiquitinated proteins at 5 to 10 uM after 18 hrs by immunoblot method. In kind it is cell-based.
The subject of assay [5] is MelJuSo UbG76V-YFP. Put plainly: Inhibition of Ubiquitin-proteasome system in human MelJuSo UbG76V-YFP cells assessed as accumulation of UbG76V-YFP protein at 5 to 10 uM after 18 hrs by immunoblot method. The class given is cell-based.
For assay [6], the system named is MelJuSo UbG76V-YFP. Kind of assay: Inhibition of Ubiquitin-proteasome system in human MelJuSo UbG76V-YFP cells assessed as Hmox-1 accumulation 5 to 10 uM after 18 hrs by immunoblot method. In kind it is cell-based.
In assay [7] the test system is MelJuSo UbG76V-YFP. Kind of assay: Inhibition of Ubiquitin-proteasome system in human MelJuSo UbG76V-YFP cells assessed as p21 accumulation 20 to 50 uM after 18 hrs by immunoblot method. The class given is cell-based.
Another assay has as its system HEK293. Kind of assay: Inhibition of Ubiquitin-proteasome system in human HEK293 cells assessed as accumulation of ornithine decarboxylase-green fluorescent fusion protein at 5 uM after 16 hrs. In kind it is cell-based.
For assay [8], the system named is MelJuSo UbG76V-YFP. Put plainly: Inhibition of Ubiquitin-proteasome system in human MelJuSo UbG76V-YFP cells assessed as accumulation of K48-linked poly-ubiquitinated proteins at 5 to 100 uM after 18 hrs by immunoblot method. The class given is cell-based.
The subject of assay [9] is MelJuSo UbG76V-YFP. Put plainly: Inhibition of Ubiquitin-proteasome system in human MelJuSo UbG76V-YFP cells assessed as HSP70B' accumulation 5 to 20 uM after 18 hrs by immunoblot method. The class given is cell-based.
The test system of assay [10] is MelJuSo UbG76V-YFP. Kind of assay: Inhibition of Ubiquitin-proteasome system in human MelJuSo UbG76V-YFP cells assessed as accumulation of K48-linked poly-ubiquitinated proteins at 5 uM by immunoblot method. In kind it is cell-based.
Assay [11] concerns MelJuSo UbG76V-YFP. Put plainly: Inhibition of Ubiquitin-proteasome system in human MelJuSo UbG76V-YFP cells assessed as accumulation of UbG76V-YFP protein at 50 uM after 18 hrs by immunoblot method. The class given is cell-based.
Another assay relates to Kasumi 1. Kind of assay: Cytotoxicity against human Kasumi-1 cells after 3 days by FMCA method. In kind it is functional, cell-based. As to conditions: Kasumi 1, 72 h.
Assay [12] has as its system MelJuSo UbG76V-YFP. Kind of assay: Inhibition of Ubiquitin-proteasome system in human MelJuSo UbG76V-YFP cells assessed as accumulation of UbG76V-YFP protein at 5 uM. The class given is cell-based.
Assay [13] relates to MelJuSo UbG76V-YFP. Put plainly: Inhibition of Ubiquitin-proteasome system in human MelJuSo UbG76V-YFP cells assessed as HSP70B' accumulation 50 uM after 18 hrs by immunoblot method. The class given is cell-based.
Assay [14] is described as follows: Cytotoxicity against human MelJuSo cells after 3 days by FMCA method. In kind it is functional, cell-based. As to conditions: MEL-JUSO, 72 h.
Assay [15] addresses T1, 26S proteasome (Homo sapiens). Kind of assay: Inhibition of erythrocyte 20S proteasome (unknown origin) assessed as inhibition of chymotrypsin activity at 10 uM after 15 mins using Suc-LLVY-AMC substrate by fluorescence assay. In kind it is protein-complex assay.
Assay [16] has the same target. Kind of assay: Inhibition of erythrocyte 20S proteasome (unknown origin) assessed as inhibition of chymotrypsin activity at 50 uM after 15 mins using Suc-LLVY-AMC substrate by fluorescence assay. In kind it is protein-complex assay.
In another assay the test system is CCRF-CEM. Kind of assay: Cytotoxicity against human CCRF-CEM cells after 3 days by FMCA method. The class given is functional, cell-based. As to conditions: 72 h.
The nature of assay [17]: as §1. The class given is functional, cell-based. As to conditions: Cancer cell lines, 72 h.
For another assay, the system named is HL-60. Put plainly: Cytotoxicity against human HL60 cells after 3 days by FMCA method. In kind it is functional, cell-based. As to conditions: HL-60, 72 h.
The subject of assay [18] is MelJuSo UbG76V-YFP. Kind of assay: Inhibition of Ubiquitin-proteasome system in human MelJuSo UbG76V-YFP cells assessed as accumulation of K48-linked poly-ubiquitinated proteins at 10 uM after 18 hrs by immunoblot method. The class given is cell-based.
Assay [19] in a line: Cytotoxicity against human NCI-H929 cells after 3 days by FMCA method. In kind it is functional, cell-based. As to conditions: NCI-H929, 72 h.
Assay [20] in a line: as §2. In kind it is functional, cell-based. As to conditions: 72 h.
Assay [21] can be described thus: Cytotoxicity against human 8226/DOX40 cells after 3 days by FMCA method. The class given is functional, cell-based. As to conditions: 72 h.
The subject of assay [22] is MelJuSo UbG76V-YFP. Kind of assay: Inhibition of Ubiquitin-proteasome system in human MelJuSo UbG76V-YFP cells assessed as accumulation of UbG76V-YFP protein at 5 uM after 18 hrs by immunoblot method. In kind it is cell-based.
Assay [23] is described as follows: Cytotoxicity against human RPMI18226 cells after 3 days by FMCA method. In kind it is functional, cell-based. As to conditions: RPMI18226, 72 h.
Assay [24] in a line: as §3. The class given is functional, cell-based. As to conditions: 72 h.
Another assay deals with HCT-116. Put plainly: Cytotoxicity against human HCT116 cells after 3 days by FMCA method. The class given is functional, cell-based. As to conditions: HCT-116, 72 h.

pIC50: −log10 of the molar value. Activity calls are given as the source filed them. The calls are words filed in the database; no cut-off is given here.

In the case of `CC(C)C[C@H](NC(=O)[C@H](Cc1ccccc1)NC(=O)c1cnccn1)B(O)O`, the inhibition result (with Cancer cell lines; in the assay on CLL; in assay [1]; in assay [2]; in the assay filed under Homo sapiens) was “Active” in each case.
`COc1cc(/C=C/C(=O)N2CCC=CC2=O)cc(OC)c1OC`: the inhibition entry with MelJuSo UbG76V-YFP [3] was “inactive”.
As for `CC1(C)C(N(O)C(=O)Nc2ccc(Cl)cc2)N(c2ccc(Cl)cc2)C(=O)N1CC(=O)N/N=C/C=C/c1ccc([N+](=O)[O-])o1` (stereo unspecified), the inhibition result in the assay on MelJuSo UbG76V-YFP [4] and in the assay on MelJuSo UbG76V-YFP [6] was “Active” in each case. For the same compound, the inhibition result in the assay with MelJuSo UbG76V-YFP [5] and in the assay on MelJuSo UbG76V-YFP [3] was “inactive” throughout.
`O=C(CCl)Nc1cccc(NC2=NS(=O)(=O)c3ccccc32)c1`: the inhibition entry in the assay on MelJuSo UbG76V-YFP [4] and in the assay on MelJuSo UbG76V-YFP [6] was “Active” throughout. Further, the inhibition entry with MelJuSo UbG76V-YFP [5] and in the assay on MelJuSo UbG76V-YFP [3] was “inactive” throughout.
For orientation: pIC50 means the IC50 on a negative log10 scale, so that one unit is a factor of ten. A higher pIC50 goes with a small IC50. As for `O=P(Oc1ccccc1)(Oc1ccccc1)OC1C=CS(=O)(=O)C1` (stereo unspecified), the inhibition result in the assay on MelJuSo UbG76V-YFP [7], with HEK293, with MelJuSo UbG76V-YFP [8], with MelJuSo UbG76V-YFP [10], in the assay with MelJuSo UbG76V-YFP [11] and with MelJuSo UbG76V-YFP [12] was “Active” each time. The inhibition result (with MelJuSo UbG76V-YFP [13]; in [16]; with MelJuSo UbG76V-YFP [4]; in the assay with MelJuSo UbG76V-YFP [18]; in the assay with MelJuSo UbG76V-YFP [6]) was “Active” in each case. In addition, the inhibition result (with MelJuSo UbG76V-YFP [9]; in [15]; in the assay with MelJuSo UbG76V-YFP [5]; in the assay with MelJuSo UbG76V-YFP [22]; in the assay on MelJuSo UbG76V-YFP [3]) was “inactive” in each case. Moreover, the pIC50 with Kasumi 1 is 5.72; in assay [14], 5.27; in the assay on CCRF-CEM, 5.74; in [17], 5.77; in the assay with HL-60, 5.60; in [19], 6.21. Moreover, the negative logarithm of the IC50 (pIC50) is 6.16 in assay [20]; 5.55 in assay [21]; 5.89 in assay [23]; 6.29 in [24]; 5.24 in the assay on HCT-116.

The record behind these values is ChEMBL document CHEMBL3217720, “Identification of an inhibitor of the ubiquitinproteasome system that induces accumulation of polyubiquitinated proteins in the absence of blocking of proteasome function” (Medchemcomm, 2014).
